# Reference: a melting point compilation (Tetko et al.; mined from patent text by program, amines drawn as free bases though some values may be those of a salt)
row,Structure (SMILES),melting point
1,CN1C(=O)C(NC(=O)c2cc3ccccc3[nH]2)C(=O)N(c2ccccc2)c2cc(Cl)ccc21 (stereo not given),280 °C
2,CN(C)CCc1ccc(O)c2[nH]ncc12,223 to 227 °C
3,COc1ccc(-c2[nH]nc3c2C(=O)c2c(NC(=O)NN4CCOCC4)cccc2-3)cc1,290 to 291 °C
4,CC1(C)CCC(C)(C)c2cc3c(cc21)OCC3(C)c1cc(C=C(Br)Br)cs1 (stereo not given),124 °C
5,O=C(O)[C@@H]1C[C@H]1/C=C\c1ccc(-c2nc3ccccc3o2)cc1 (relative stereo),171 to 172 °C
6,Cc1cccc2c(C#N)csc12,82 to 84 °C
7,N#Cc1cc(NC(=O)c2ccn(-c3ccc(Cl)cc3)c2)ccc1N1CCN(C2CCOCC2)CC1,224 °C
8,CCn1c(C)nc2cc(CN3CCN(C(c4ccccc4)c4ccccc4)CC3)ccc21,153 °C
9,O=c1c2c(Cc3ccc(F)cc3)n[nH]c2c2cccnc2n1-c1cccc(C(F)(F)F)c1,243 to 245 °C
10,CN1CCC(=O)C(C(c2ccc(Cl)cc2)c2ccc(Cl)cc2)C1 (stereo not given),146 to 147 °C
11,O=C(NC1CCCCC1)NC1N=C(C2CCCCC2)c2ccccc2N(CC(=O)N2CC3CCC(CC3)C2)C1=O (racemic),195 to 197 °C
12,CCc1n[nH]c(=O)c2c(C)ncn12,175 to 178 °C
13,CC(=O)Nc1ccc(C#Cc2ccc(C3CC4CCCC(C3)N4C)nn2)cc1 (stereo not given),270 to 271 °C
14,COc1cc(C2(CNC(=O)Nc3c(C(C)C)cccc3C(C)C)CCC2)cc(OC)c1OC,145 to 147 °C
15,CC12C=CC(=O)C=C1CCC1C2C(=O)CC2(C)C(SCc3ccc(Cl)cc3)CCC12 (stereo not given),176 to 180 °C
16,COc1cc(Cl)c2c(c1)CCN2c1cc(NC(C)C2CCC2)nc(C)n1 (stereo not given),125 to 128 °C
17,COc1cc(OC)cc(OC(=O)N2CCCC2=O)c1,80 to 81 °C
18,COCC1CN(c2ccc(C3CCC(=C(C)C)CC3)cc2)C(=O)O1 (racemic),89 to 91 °C
19,Cc1ccc(Oc2nc3ccccc3o2)c(=S)n1C,245 to 247 °C
20,CCN1CCN(c2c(F)c(N)c3c(=O)c(C(=O)O)cn(C4CC4)c3c2F)CC1,236 to 237 °C
21,C#Cc1cccc(Nc2c(C#N)cnc3ccc(OCCOC)c(OCCOC)c23)c1,150 to 153 °C
22,CCOC(=O)C(=NOC(C)(C)C(=O)OC(C)(C)C)c1csc(NC(c2ccccc2)(c2ccccc2)c2ccccc2)n1,124 to 125 °C
23,COc1ccc2c(c1)/C(=C\CNC(=O)NC(C)(C)C)C(C)(C)CC2,175 to 176 °C
24,COc1ccc(-c2c(-c3cc(OC)c(OC)c(OC)c3)ncn2-c2ccccc2)cc1O,176 to 177 °C
25,CC(=O)Nc1c(C(=O)c2ccc(F)cc2)[nH]c2cc(Cl)ccc12,205 to 207 °C
26,O=c1ccc2cc(-n3cnnc3)cc(C(F)(F)F)c2[nH]1,> 320 °C
27,CCC1C(=O)N(CC)CCc2cc(Nc3ncc(Cl)c(N[C@@H]4CCCC[C@H]4NS(C)(=O)=O)n3)c(OC)cc21 (stereo not given in full),126 to 127 °C
28,O=C(NCCC(F)=C(F)F)C(=O)NCCC(F)=C(F)F,139 to 141 °C
29,C[C@H](C#Cc1sccc1COCc1ccc(F)cc1)N(O)C(N)=O,94 to 95 °C
30,COc1cc(C)cc(C(=O)O)c1C12OC1C(=O)c1c(O)cccc1C2=O (stereo not given),267 to 268 °C

# Further lines, results first:
row,melting point,Structure (SMILES)
1,142 to 144 °C,CCCCc1c(-c2cc3ccccc3o2)nc(N)nc1-c1cc2ccccc2o1
2,146 °C,CC(=O)C1c2cccc(O)c2C(=O)c2c(O)cccc21
3,153 to 155 °C,CC(=O)NCCC1CCCc2ccc(O)cc21 (stereo not given)
4,96 to 97 °C,CCCCOc1cccc2oc(-c3ccccc3)cc(=O)c12
5,210 °C,COC(=O)CCCC=C1SC(=S)N(N=c2sc3ccccc3s2)C1=O
6,233 to 234 °C,O=C(NCc1ccccc1)c1cc([N+](=O)[O-])ccc1N[C@H]1CC[C@H](O)CC1
7,110 to 113 °C,Cc1nc(N2CCN(Cc3cccnc3)C2=O)sc1C(=O)NCc1ccccc1
8,180 to 182 °C,CN1C(=O)n2c(nc3ccccc32)NC12CCCC2
9,178 to 180 °C,Cc1ccc(-c2cccc(/C=C/C(=O)Nc3ccc(CCl)cc3)c2)cc1
10,98.3 to 98.5 °C,COC(=O)c1ccc(S(C)(=O)=O)cc1N
11,60 °C,CC(Cl)c1ccc(C(=O)c2cccs2)cc1 (stereo not given)
12,161 to 163 °C,CC(O)CNc1c(Br)cnc2cc(Cl)ccc12 (stereo not given)
13,80 to 81 °C,N[C@@H](C1CCCCC1)C(O)(Cc1ccccc1)Cc1ccccc1
14,197 to 198 °C,CC(=O)NCCn1nnnc1Sc1ccc([N+](=O)[O-])cc1[N+](=O)[O-]
15,132 to 133 °C,CCCC(=O)c1cnc2c(OC)cccc2c1Nc1sccc1C
16,179 to 181 °C,O=C(O)C1CC(=O)N(Cc2ccccc2)C1c1c(Cl)cccc1Cl (stereo not given)
17,227 to 229 °C,CCCc1cc(=O)oc2cc(O)cc(O)c12
18,152 to 154 °C,COc1ccc(CCc2ccncc2NC(=O)NCc2ccccc2)cc1OC1CCCC1
19,104 to 105 °C,CCCCCCNC(=O)c1ccccc1I
20,120 to 122 °C,O=C(c1cccc(OCCCN2C(=O)c3ccccc3C2=O)c1)N1CCCCC1
